From patent US20220096609A1 (priority 2019, published 2022)
“Also recorded” adds a separate entry of the source.

Key:
[1] = test system: mouse phrenic nerve hemi-diaphragm; parameters: species or system CD-1 mice
[2] = test system: mouse phrenic nerve hemidiaphragm; parameters: species or system CD-1 mice

SMILES: Nc1ccncc1N [DAP, 3,4-diaminopyridine]
- higher concentration of toxin required to induce an equivalent reduction in time for 90% paralysis as caused by DAP [1]: 6 times
- muscle denervation compared with BoNT/E alone [1]: faster muscle denervation
- muscle tension response / neurotransmission [1]: elevated muscle tension response; also recorded: enhanced neurotransmission
- onset of neuroparalysis [1]: faster onset of neuroparalysis
- reduction of the therapeutically effective amount of BoNT/E compared with BoNT/E administered alone [1]: 25-600%
- time taken for 50% paralysis (TTP50) [1]: faster time
- time taken for 90% paralysis (TTP90) [1]: faster time
- uptake of BoNT/E [1]: increased uptake

SMILES: Nc1ccncc1 [4-AP, 4-aminopyridine]
- faster BoNT/A onset (time required for 50% paralysis) [2]: approximately 25%
- increase of (initial) amplitude of muscle tension [2]: approximately 2.5 fold
- onset of paralysis compared with 30 pM BoNT/A in the absence of 4-AP [2]: progressed faster; also recorded: increased the onset of paralysis
